Measured values reported in patent US10053465B2 (Incyte Corporation, priority 2015, dated 2018).
Like-named read-outs stand apart in the source and are kept apart here.

Assays:
c-Mer = c-Mer (Homo sapiens (Human), UniProt Q12866); settings: read-out: c-Mer IC50; HTRF, 60 min room temperature
Method: (§1) 0.1 ul test compounds dissolved in DMSO were transferred from compound plates to white 384-well assay plates (Greiner [sequence] plates). […] The plate was protected from light and incubated at room temperature for 60 min.

Tyro3 = Tyro3 (Homo sapiens (Human), UniProt Q06418); assay: biochemical; settings: read-out: Tyro3IC50
Method: as §1

Phospho-Axl = Phospho-Axl (Homo sapiens (Human), UniProt P30530); assay: biochemical;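 further: test system is recombinant Axl protein that was first autophosphorylated with ATP and MgCl2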
Phospho-Axl, sequence (P30530 26-894): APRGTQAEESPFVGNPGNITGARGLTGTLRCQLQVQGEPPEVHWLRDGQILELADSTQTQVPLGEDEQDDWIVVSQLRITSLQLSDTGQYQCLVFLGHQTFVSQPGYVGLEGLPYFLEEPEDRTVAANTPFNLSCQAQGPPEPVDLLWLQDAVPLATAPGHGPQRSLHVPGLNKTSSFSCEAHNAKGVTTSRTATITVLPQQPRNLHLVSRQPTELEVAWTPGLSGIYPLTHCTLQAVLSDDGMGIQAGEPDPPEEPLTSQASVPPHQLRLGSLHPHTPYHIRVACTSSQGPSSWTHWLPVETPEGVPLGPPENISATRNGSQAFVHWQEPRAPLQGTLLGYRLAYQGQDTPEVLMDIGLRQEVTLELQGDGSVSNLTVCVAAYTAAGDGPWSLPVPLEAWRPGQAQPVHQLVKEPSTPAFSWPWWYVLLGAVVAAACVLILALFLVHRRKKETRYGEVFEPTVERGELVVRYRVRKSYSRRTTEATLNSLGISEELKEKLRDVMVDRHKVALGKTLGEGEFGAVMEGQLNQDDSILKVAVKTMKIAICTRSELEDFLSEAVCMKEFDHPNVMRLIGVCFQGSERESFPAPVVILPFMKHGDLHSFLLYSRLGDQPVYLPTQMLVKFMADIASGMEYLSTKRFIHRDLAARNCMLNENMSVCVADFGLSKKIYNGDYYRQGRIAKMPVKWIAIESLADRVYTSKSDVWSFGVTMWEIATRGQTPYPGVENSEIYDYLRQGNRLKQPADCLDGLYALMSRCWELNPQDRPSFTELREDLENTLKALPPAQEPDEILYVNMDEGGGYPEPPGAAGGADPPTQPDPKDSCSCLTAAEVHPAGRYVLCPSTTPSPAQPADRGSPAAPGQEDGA
Method: Autophosphorylation of Axl was carried out by incubating the recombinant Axl protein (Life Technologies, PV4275) in buffer containing 50 mM Tris, pH7.5, 0.2 mg/ml Axl, 5 mM ATP, 20 mM MgCl2 and 2 mM DTT at room temperature for 1 hour.
as §1

c-Mer, sequence (Q12866 21-999): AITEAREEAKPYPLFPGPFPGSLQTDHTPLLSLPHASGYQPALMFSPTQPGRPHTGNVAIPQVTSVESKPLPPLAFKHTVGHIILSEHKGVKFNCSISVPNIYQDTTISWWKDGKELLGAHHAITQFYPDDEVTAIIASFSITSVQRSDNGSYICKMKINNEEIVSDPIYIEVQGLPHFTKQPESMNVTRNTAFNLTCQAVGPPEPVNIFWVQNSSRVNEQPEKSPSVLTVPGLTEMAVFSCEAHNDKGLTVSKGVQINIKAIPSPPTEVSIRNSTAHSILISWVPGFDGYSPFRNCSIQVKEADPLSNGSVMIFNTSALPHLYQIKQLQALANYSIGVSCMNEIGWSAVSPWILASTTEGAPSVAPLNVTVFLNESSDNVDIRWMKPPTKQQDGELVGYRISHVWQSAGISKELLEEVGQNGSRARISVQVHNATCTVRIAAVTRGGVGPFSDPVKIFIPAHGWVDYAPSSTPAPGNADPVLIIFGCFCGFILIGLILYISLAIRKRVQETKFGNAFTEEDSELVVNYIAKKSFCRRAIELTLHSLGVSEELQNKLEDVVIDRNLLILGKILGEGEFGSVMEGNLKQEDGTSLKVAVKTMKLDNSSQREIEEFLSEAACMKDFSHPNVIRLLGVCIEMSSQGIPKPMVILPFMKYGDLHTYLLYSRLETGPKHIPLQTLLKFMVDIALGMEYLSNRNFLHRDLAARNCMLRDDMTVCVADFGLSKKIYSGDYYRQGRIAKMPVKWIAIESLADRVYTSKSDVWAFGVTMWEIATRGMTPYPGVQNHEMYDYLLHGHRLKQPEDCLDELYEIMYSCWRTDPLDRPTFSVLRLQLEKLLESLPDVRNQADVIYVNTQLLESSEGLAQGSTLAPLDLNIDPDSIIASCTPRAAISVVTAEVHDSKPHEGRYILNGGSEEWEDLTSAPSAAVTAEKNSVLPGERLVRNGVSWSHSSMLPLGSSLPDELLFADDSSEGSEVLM
Tyro3, sequence (Q06418 41-890): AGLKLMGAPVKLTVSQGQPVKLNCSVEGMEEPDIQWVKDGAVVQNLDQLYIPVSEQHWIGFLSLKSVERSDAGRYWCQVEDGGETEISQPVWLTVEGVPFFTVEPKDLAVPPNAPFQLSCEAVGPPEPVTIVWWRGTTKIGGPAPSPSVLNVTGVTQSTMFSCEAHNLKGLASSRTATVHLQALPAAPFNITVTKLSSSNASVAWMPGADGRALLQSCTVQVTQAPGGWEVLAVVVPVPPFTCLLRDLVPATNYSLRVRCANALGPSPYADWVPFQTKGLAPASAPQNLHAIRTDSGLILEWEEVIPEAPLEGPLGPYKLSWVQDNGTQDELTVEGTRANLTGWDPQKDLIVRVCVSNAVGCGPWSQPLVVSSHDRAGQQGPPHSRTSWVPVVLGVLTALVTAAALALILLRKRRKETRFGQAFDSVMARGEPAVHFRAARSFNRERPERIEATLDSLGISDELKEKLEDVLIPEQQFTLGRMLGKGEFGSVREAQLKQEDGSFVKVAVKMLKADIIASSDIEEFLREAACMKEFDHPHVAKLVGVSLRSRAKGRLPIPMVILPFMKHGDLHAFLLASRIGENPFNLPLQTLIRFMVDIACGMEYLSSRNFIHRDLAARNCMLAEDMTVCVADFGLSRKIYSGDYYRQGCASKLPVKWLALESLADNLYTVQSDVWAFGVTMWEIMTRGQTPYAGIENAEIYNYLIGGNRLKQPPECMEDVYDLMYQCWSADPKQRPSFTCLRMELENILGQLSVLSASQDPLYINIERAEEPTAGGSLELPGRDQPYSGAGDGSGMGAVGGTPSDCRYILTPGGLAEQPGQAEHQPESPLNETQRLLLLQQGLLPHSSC

Row | Structure (SMILES) | IC50 (c-Mer) [µM] | IC50 (Tyro3) [µM] | IC50 (Phospho-Axl; HTRF, 60 min room temperature) [µM] | IC50 (Phospho-Axl) [µM]
1 | O=C(NCC1(c2cccc(-c3ncnc4[nH]ccc34)c2)Cc2ccccc2C1)N1CCOCC1 [Example 35, N-({2-[3-(7H-Pyrrolo[2,3-d]pyrimidin-4-yl)phenyl]-2,3-dihydro-1H-inden-2-yl}methyl)morpholine-4-carboxamide] | > 3 | > 3 | – | –
2 | N#CCC1(c2cccc(-c3ncnc4[nH]ccc34)c2)Cc2ccccc2C1 [Example 36, {2-[3-(7H-Pyrrolo[2,3-d]pyrimidin-4-yl)phenyl]-2,3-dihydro-1H-inden-2-yl}acetonitrile] | – | > 3 | – | –
3 | NCCC1(c2cccc(-c3ncnc4[nH]ccc34)c2)Cc2ccccc2C1 [Example 37, 2-{2-[3-(7H-Pyrrolo[2,3-d]pyrimidin-4-yl)phenyl]-2,3-dihydro-1H-inden-2-yl}ethanamine] | – | > 3 | < 0.5 | –
4 | CC(C)C(=O)NCCC1(c2cccc(-c3ncnc4[nH]ccc34)c2)Cc2ccccc2C1 [Example 38, 2-Methyl-N-(2-{2-[3-(7H-pyrrolo[2,3-d]pyrimidin-4-yl)phenyl]-2,3-dihydro-1H-inden-2-yl}ethyl)propanamide] | – | > 3 | – | –
5 | O=C(NCCC1(c2cccc(-c3ncnc4[nH]ccc34)c2)Cc2ccccc2C1)C1CC1 [Example 39, N-(2-{2-[3-(7H-Pyrrolo[2,3-d]pyrimidin-4-yl)phenyl]-2,3-dihydro-1H-inden-2-yl}ethyl)cyclopropanecarboxamide] | – | > 3 | < 0.5 | –
6 | NCC1(c2cccc(-c3ncnc4[nH]ccc34)c2)Cc2ccc(CNC3CC3)cc2C1 (centres unmarked) [Example 40, N-((2-(3-(7H-Pyrrolo[2,3-d]pyrimidin-4-yl)phenyl)-2-(aminomethyl)-2,3-dihydro-1H-inden-5-yl)methyl)cyclopropanamine] | > 3 | > 3 | – | –
7 | NCC1(c2cccc(-c3ncnc4[nH]ccc34)c2)Cc2ccc(CNC3CCC3)cc2C1 (centres unmarked) [Example 41, N-((2-(3-(7H-Pyrrolo[2,3-d]pyrimidin-4-yl)phenyl)-2-(aminomethyl)-2,3-dihydro-1H-inden-5-yl)methyl)cyclobutanamine] | > 3 | > 3 | – | –
8 | NCC1(c2cccc(-c3ncnc4[nH]ccc34)c2)Cc2ccc(CN3CCC[C@@H]3C(N)=O)cc2C1 (stereo partly drawn) [Example 43, (2R)-1-((2-(3-(7H-Pyrrolo[2,3-d]pyrimidin-4-yl)phenyl)-2-(aminomethyl)-2,3-dihydro-1H-inden-5-yl)methyl)pyrrolidine-2-carboxamide] | – | > 3 | > 3 | –
9 | NCC1(c2cccc(-c3ncnc4[nH]ccc34)c2)Cc2ccc(CN3CC[C@H](C(N)=O)C3)cc2C1 (stereo partly drawn) [Example 44, (3S)-1-((2-(3-(7H-Pyrrolo[2,3-d]pyrimidin-4-yl)phenyl)-2-(aminomethyl)-2,3-dihydro-1H-inden-5-yl)methyl)pyrrolidine-3-carboxamide] | > 3 | – | – | –
10 | NCC1(c2cccc(-c3ncnc4[nH]ccc34)c2)Cc2ccc(CN3CCC3)cc2C1 (centres unmarked) [Example 46, (2-(3-(7H-Pyrrolo[2,3-d]pyrimidin-4-yl)phenyl)-5-(azetidin-1-ylmethyl)-2,3-dihydro-1H-inden-2-yl)methanamine] | > 3 | – | – | –
11 | NCC1(c2cccc(-c3ncnc4[nH]ccc34)c2)Cc2ccc(CN3CC(F)C3)cc2C1 (centres unmarked) [Example 47, (2-(3-(7H-Pyrrolo[2,3-d]pyrimidin-4-yl)phenyl)-5-((3-fluoroazetidin-1-yl)methyl)-2,3-dihydro-1H-inden-2-yl)methanamine] | > 3 | – | – | –
12 | N#Cc1ccc2c(c1)CC(CNC(=O)C1CC1)(c1cccc(-c3ncnc4[nH]ccc34)c1)C2 (centres unmarked) [Example 50, N-({5-Cyano-2-[3-(7H-pyrrolo[2,3-d]pyrimidin-4-yl)phenyl]-2,3-dihydro-1H-inden-2-yl}methyl)cyclopropanecarboxamide] | – | > 3 | – | –
13 | CN(C)C1CCN(c2ccc3c(c2)CC(CN)(c2cccc(-c4ncnc5[nH]ccc45)c2)C3)C1 (centres unmarked) [Example 52, 1-{2-(Aminomethyl)-2-[3-(7H-pyrrolo[2,3-d]pyrimidin-4-yl)phenyl]-2,3-dihydro-1H-inden-5-yl}-N,N-dimethylpyrrolidin-3-amine] | – | > 3 | > 3 | –
14 | CNC1CCN(c2ccc3c(c2)CC(CN)(c2cccc(-c4ncnc5[nH]ccc45)c2)C3)C1 (centres unmarked) [Example 53, 1-{2-(Aminomethyl)-2-[3-(7H-pyrrolo[2,3-d]pyrimidin-4-yl)phenyl]-2,3-dihydro-1H-inden-5-yl}-N-methylpyrrolidin-3-amine] | – | > 3 | > 3 | –
15 | NCC1(c2cccc(-c3ncnc4[nH]ccc34)c2)Cc2ccc(N3CCC(O)C3)cc2C1 (centres unmarked) [Example 54, 1-{2-(Aminomethyl)-2-[3-(7H-pyrrolo[2,3-d]pyrimidin-4-yl)phenyl]-2,3-dihydro-1H-inden-5-yl}pyrrolidin-3-ol] | – | > 3 | – | –
16 | CC(O)C1CCN(c2ccc3c(c2)CC(CN)(c2cccc(-c4ncnc5[nH]ccc45)c2)C3)C1 (centres unmarked) [Example 55, 1-(1-{2-(Aminomethyl)-2-[3-(7H-pyrrolo[2,3-d]pyrimidin-4-yl)phenyl]-2,3-dihydro-1H-inden-5-yl}pyrrolidin-3-yl)ethanol] | – | > 3 | > 3 | –

Row | Structure (SMILES) | IC50 (c-Mer) [µM] | IC50 (Tyro3) [µM] | IC50 (Phospho-Axl; HTRF, 60 min room temperature) [µM] | IC50 (Phospho-Axl) [µM]
17 | NCC1(c2cccc(-c3ncnc4[nH]ccc34)c2)Cc2ccc(N3CCCC(O)C3)cc2C1 (centres unmarked) [Example 58, 1-{2-(Aminomethyl)-2-[3-(7H-pyrrolo[2,3-d]pyrimidin-4-yl)phenyl]-2,3-dihydro-1H-inden-5-yl}piperidin-3-ol] | > 3 | < 0.5 | – | –
18 | N#CC1CCN(c2ccc3c(c2)CC(CN)(c2cccc(-c4ncnc5[nH]ccc45)c2)C3)CC1 (centres unmarked) [Example 59, 1-{2-(Aminomethyl)-2-[3-(7H-pyrrolo[2,3-d]pyrimidin-4-yl)phenyl]-2,3-dihydro-1H-inden-5-yl}piperidine-4-carbonitrile] | > 3 | – | – | –
19 | NCC1(c2cccc(-c3ncnc4[nH]ccc34)c2)Cc2ccc(NC3CCOCC3)cc2C1 (centres unmarked) [Example 60, N-{2-(Aminomethyl)-2-[3-(7H-pyrrolo[2,3-d]pyrimidin-4-yl)phenyl]-2,3-dihydro-1H-inden-5-yl}tetrahydro-2H-pyran-4-amine] | > 3 | – | – | –
20 | NCC1(c2cccc(-c3ncnc4[nH]ccc34)c2)Cc2ccc(N3CCCC3)cc2C1 (centres unmarked) [Example 61, 1-{5-Pyrrolidin-1-yl-2-[3-(7H-pyrrolo[2,3-d]pyrimidin-4-yl)phenyl]-2,3-dihydro-1H-inden-2-yl}methanamine] | – | > 3 | – | –
21 | COCCCNc1ccc2c(c1)CC(CN)(c1cccc(-c3ncnc4[nH]ccc34)c1)C2 (centres unmarked) [Example 66, 2-(Aminomethyl)-N-(3-methoxypropyl)-2-[3-(7H-pyrrolo[2,3-d]pyrimidin-4-yl)phenyl]indan-5-amine] | – | > 3 | – | –
22 | COCC1(Nc2ccc3c(c2)CC(CN)(c2cccc(-c4ncnc5[nH]ccc45)c2)C3)CC1 (centres unmarked) [Example 67, 2-(Aminomethyl)-N-[1-(methoxymethyl)cyclopropyl]-2-[3-(7H-pyrrolo[2,3-d]pyrimidin-4-yl)phenyl]indan-5-amine] | – | > 3 | – | –
23 | NCC1(c2cccc(-c3ncnc4[nH]ccc34)c2)Cc2ccc(-c3cccc(F)c3)cc2C1 (centres unmarked) [Example 70, 1-{5-(3-Fluorophenyl)-2-[3-(7H-pyrrolo[2,3-d]pyrimidin-4-yl)phenyl]-2,3-dihydro-1H-inden-2-yl}methanamine] | > 3 | – | – | –
24 | NCC1(c2cccc(-c3ncnc4[nH]ccc34)c2)Cc2ccc(-c3ccc(F)cc3)cc2C1 (centres unmarked) [Example 71, 1-{5-(4-Fluorophenyl)-2-[3-(7H-pyrrolo[2,3-d]pyrimidin-4-yl)phenyl]-2,3-dihydro-1H-inden-2-yl}methanamine] | > 3 | – | – | –
25 | CN(C)c1ccc(-c2ccc3c(c2)CC(CN)(c2cccc(-c4ncnc5[nH]ccc45)c2)C3)cc1 (centres unmarked) [Example 72, 4-{2-(Aminomethyl)-2-[3-(7H-pyrrolo[2,3-d]pyrimidin-4-yl)phenyl]-2,3-dihydro-1H-inden-5-yl}-N,N-dimethylaniline] | – | < 0.5 | < 0.5 | –
26 | NCC1(c2cccc(-c3ncnc4[nH]ccc34)c2)Cc2ccc(-c3ccc4nccn4c3)cc2C1 (centres unmarked) [Example 73, 1-{5-Imidazo[1,2-a]pyridin-6-yl-2-[3-(7H-pyrrolo[2,3-d]pyrimidin-4-yl)phenyl]-2,3-dihydro-1H-inden-2-yl}methanamine] | – | > 3 | – | –
27 | NCC1(c2cccc(-c3ncnc4[nH]ccc34)c2)Cc2ccc(-c3ccc(N4CCCC4)nc3)cc2C1 (centres unmarked) [Example 75, 1-{5-(6-Pyrrolidin-1-ylpyridin-3-yl)-2-[3-(7H-pyrrolo[2,3-d]pyrimidin-4-yl)phenyl]-2,3-dihydro-1H-inden-2-yl}methanamine] | – | > 3 | < 0.5 | –
28 | NCC1(c2cccc(-c3ncnc4[nH]ccc34)c2)Cc2ccc(-c3cccnc3)cc2C1 (centres unmarked) [Example 77, (2-(3-(7H-Pyrrolo[2,3-d]pyrimidin-4-yl)phenyl)-5-(pyridin-3-yl)-2,3-dihydro-1H-inden-2-yl)methanamine] | > 3 | < 0.5 | – | –
29 | NCC1(c2cccc(-c3ncnc4[nH]ccc34)c2)Cc2ccc(-c3ccncc3)cc2C1 (centres unmarked) [Example 78, (2-(3-(7H-Pyrrolo[2,3-d]pyrimidin-4-yl)phenyl)-5-(pyridin-4-yl)-2,3-dihydro-1H-inden-2-yl)methanamine] | > 3 | – | – | –
30 | Cc1cc2c(-c3cccc(C4(CN)Cc5ccccc5C4)c3)ncnc2[nH]1 [Example 93, 1-{2-[3-(6-Methyl-7H-pyrrolo[2,3-d]pyrimidin-4-yl)phenyl]-2,3-dihydro-1H-inden-2-yl}methanamine] | – | > 3 | – | –
31 | NCC1(c2cccc(-c3ncnc4[nH]ccc34)c2)CCc2ccccc2C1 (centres unmarked) [Example 99, 1-{2-[3-(7H-Pyrrolo[2,3-d]pyrimidin-4-yl)phenyl]-1,2,3,4-tetrahydronaphthalen-2-yl}methanamine] | < 0.5 | – | – | < 0.5
32 | NCC1(n2cc(-c3ncnc4[nH]ccc34)ccc2=O)Cc2ccccc2C1 [Example 100, 1-[2-(Aminomethyl)-2,3-dihydro-1H-inden-2-yl]-5-(7H-pyrrolo[2,3-d]pyrimidin-4-yl)pyridin-2(1H)-one] | < 0.5 | – | < 0.5 | –
